# Source: PMC10375191, “Transformable Neuropeptide Prodrug with Tumor Microenvironment Responsiveness for Tumor Growth and Metastasis Inhibition of Triple‐Negative Breast Cancer” (Advanced Science, 2023)
# Starred links: 1 amine or outer side, 2 acyl side, 3 side chain; linkers in the order of their positions; H or OH if unused. Residues, ends and D or L forms follow the SMILES beside them. *: point of attachment. Doxorubicin(3'-N) = COc1cccc2c1C(=O)c1c(O)c3c(c(O)c1C2=O)C[C@@](O)(C(=O)CO)C[C@@H]3O[C@H]1C[C@H](N*)[C@H](O)[C@H](C)O1; Suc = O=C(CCC(=O)[*:2])[*:1]
# Key:
# [1] = system: MDA‐MB‐231 metastasis model; assay: Anti-metastasis evaluation, MDA-MB-231 metastasis model; type: in vivo, mouse; settings: MDA-MB-231 metastasis model, DOX 5 mg kg^−1
# Text: (§1) All the animal experimental procedures were recognized and approved by the Regional Ethics Committee for Animal Experiments at Ningbo University, China (Permit NO. SYXK (Zhe) 2019‐0005). The triple‐negative breast cancer (TNBC) xenograft tumors were established on female BALB/c nude mice (≈15 g) by subcutaneous injection of MDA‐MB‐231 cells (5 × 10^6 cells in each mouse). TNBC metastasis models were constructed by injecting MDA‐MB‐231‐luc cells (1 × 10^5 cells in each mouse) through the tail vein to female BALB/c nude mice. The day that MDA‐MB‐231‐luc was injected was set as D0. In vivo imaging system (IVIS) (Lumina XRMS Ш, PerkinElmer, USA) was utilized to identify the tumor metastasis at D12.
# For the TNBC metastasis model, two kinds of treatments were developed. […] After seven times of injections, continued observation of the mice was carried out. […] In vivo imaging system (IVIS Lumina XRMS Ш, PerkinElmer, USA) was utilized again to estimate the tumor metastasis at D26. Meanwhile, the mice were sacrificed and the main organs (heart, livers, spleen, lung, and kidney) were separated for histological analysis.
# [2] = system: MDA‐MB‐231 xenograft model; assay: In vivo antitumor evaluation, MDA-MB-231 xenograft; design: species or system mouse; settings: MDA-MB-231 tumor-bearing nude mice; DOX-P18 up to 100 mg kg^−1 (20 mg kg^−1 DOX); DOX at 10 and 20 mg kg^−1
# Text: as §1
# When the tumor volume of BALB/c mice reached ≈70 mm^3 (V = L × W × W/2), the tumor‐bearing mice were randomly divided into seven groups (n = 5 for each group). […] 100 µL drug was injected intravenously through the tail vein every other day for a total of five times. The day that the first injection was given was set as D0. Tumor size and mouse weight were measured every 2 days from the day that treatment started until D26.
# healthy ICR mice = assay: Maximum tolerated dose / acute toxicity study
# Text: Animal survival of each group (n = 10, 5 female and 5 male) was continuously recorded for 14 days. Eventually, the evaluation and calculation of the median lethal dose (LD50) were completed with these collected data using the Bliss rule.
# MDA‐MB‐231 cells = assay: CCK-8 cell viability assay, MDA-MB-231; type: cell-based, human
# Procedure: (§2) MDA‐MB‐231 cells were incubated in 96‐well plates for 24 h (1 × 10^4 cells per well). […] At the appointed time, 10 µL CCK‐8 solution was dropped into each well and further co‐incubated with treated cells for 2 h. The absorbance values at 450 nm were measured by an automated plate reader (iMark (168‐1130), Biorad, USA). The IC50 values were obtained from Microsoft Excel's FORECAST formula.
# MCF‐10A cells = assay: CCK-8 cell viability assay, MCF-10A; type: cell-based, human; settings: 24 h
# Procedure: as §2
# mammary epithelial cell line MCF-10A after 24 h incubation. Data are presented as
# means ± standard deviations (n = 3).
# (§3) (1 picture or pasted object on this page, not shown here)
# MCF‐7 cells = assay: CCK-8 cell viability assay, MCF-7; type: cell-based, human; settings: MCF-7, 24 h
# Procedure: as §2
# breast cancer cell line MCF-7 after 24 h incubation. Data are presented as means ±
# standard deviations (n = 3).
# as §3
# [3] = Morphological transformation / particle size by DLS and TEM in PBS of different pH; type: physicochemical; settings: TEM, PBS pH 6.5
compound,measurement,setting,value
"COc1cccc2c1C(=O)c1c(O)c3c(c(O)c1C2=O)C[C@@](O)(C(=O)CO)C[C@@H]3O[C@H]1C[C@H](N)[C@H](O)[C@H](C)O1 [DOX, doxorubicin, reference compound]",Survival in metastasis model,[1],no mice survived up to day 14 (D14)
same,Death / body weight in tumor-bearing mice,[2],cause death
same,Histological analysis of major organs,"healthy ICR mice; 14 days after single dose, 40 mg kg^−1 DOX (or DOX equivalent)","disordered arrangement of myofilaments, glomerulosclerosis, and protein casts"
same,Blood biochemistry: ALT and ALP activity,"healthy ICR mice; 14 days after single injection, with increasing dose, n = 3",gradually decreased
COc1cccc2c1C(=O)c1c(O)c3c(c(O)c1C2=O)C[C@@](O)(C(=O)CO)C[C@@H]3O[C@H]1C[C@H](NC(=O)CCC(=O)N2CCC[C@H]2C(=O)N[C@@H](CC(C)C)C(=O)NCC(=O)O)[C@H](O)[C@H](C)O1 [DOX‐P3],IC50 with extended incubation time,"MDA‐MB‐231 cells; MDA-MB-231, 36 and 48 h versus 24 h",further reduced
CC[C@H](C)[C@H](NC(=O)[C@@H]1CCCN1C(=O)[C@H](CC(N)=O)NC(=O)[C@H](CC(N)=O)NC(=O)[C@H](Cc1ccc(O)cc1)NC(=O)[C@H](Cc1c[nH]cn1)NC(=O)[C@H](CCCNC(=N)N)NC(=O)[C@@H](NC(=O)[C@H](CCCNC(=N)N)NC(=O)CNC(=O)CNC(=O)[C@H](CC(C)C)NC(=O)[C@@H]1CCCN1C(=O)CCC(=O)N[C@H]1C[C@H](O[C@H]2C[C@](O)(C(=O)CO)Cc3c(O)c4c(c(O)c32)C(=O)c2c(OC)cccc2C4=O)O[C@@H](C)[C@H]1O)C(C)C)C(=O)N[C@@H](Cc1c[nH]c2ccccc12)C(=O)N[C@@H](CCCNC(=N)N)C(=O)N[C@@H](CCC(N)=O)C(=O)N[C@@H](CCCNC(=N)N)C(=O)N[C@@H](Cc1ccc(O)cc1)C(N)=O [DOX‐P18R] ({Doxorubicin(3'-N)-Suc}-PLGGRVRHYNNPIWRQRY-NH2),"IC50 (cytotoxicity), in words","MDA‐MB‐231 cells; MDA-MB-231, 24 h",particularly high IC50 values
same,"IC50 (cytotoxicity), in words",MCF‐10A cells,particularly high IC50 values
same,"IC50 (cytotoxicity), in words",MCF‐7 cells,particularly high IC50 values
CC[C@H](C)[C@H](NC(=O)[C@@H]1CCCN1C(=O)[C@H](CC(N)=O)NC(=O)[C@H](CC(N)=O)NC(=O)[C@H](Cc1ccc(O)cc1)NC(=O)[C@H](Cc1c[nH]cn1)NC(=O)[C@H](CCCNC(=N)N)NC(=O)CNC(=O)[C@H](CCCNC(=N)N)NC(=O)[C@@H](N)C(C)C)C(=O)N[C@@H](Cc1c[nH]c2ccccc12)C(=O)N[C@@H](CCCNC(=N)N)C(=O)N[C@@H](CCC(N)=O)C(=O)N[C@@H](CCCNC(=N)N)C(=O)N[C@@H](Cc1ccc(O)cc1)C(N)=O [P15] (H-VRGRHYNNPIWRQRY-NH2),Morphology by TEM,[3],fibroid aggregations
